The nature of series [1]: Plasma lactulose after oral lactulose solution in canine NSAID-induced gastric ulceration model (ion chromatography). The series is classed as in vivo, dog. The settings on record: for concentration at 10 min / concentration at 20 min / concentration at 30 min / concentration at 60 min: dog, plasma, po; for concentration at 20 min: 20 min after 0.6-0.7 g/kg PO; for concentration at 30 min: 30 min after 0.6-0.7 g/kg PO; for concentration at 60 min: 60 min after 0.6-0.7 g/kg PO. On the procedure:
A model of canine gastric ulceration was developed using a combination of orally administered nonsteroidal anti-inflammatory drugs (NSAIDs) at doses appropriate to induce ulceration without concomitant renal or hepatic dysfunction. Healthy laboratory dogs (14.0 to 16.7 kg) were screened to exclude individuals with clinically silent disorders, including gastrointestinal disease. Under the GCP study protocol, each dog was administered 50 ml of a 20% w/v lactulose solution orally (0.6-0.7 g/kg lactulose PO) following a 24-h fast at baseline and following a period of ulcer induction. On each occasion, peripheral venous blood was drawn from each dog into 1.3-ml Sarstedt blood tubes containing lithium heparin as an anticoagulant at 10, 20, 30 and 60 minutes following bolus administration of the lactulose solution. The Sarstedt tube product number was 41.1393.005. Blood samples were centrifuged for 15 minutes at 3000 rpm, before decanting plasma into plain tubes; plasma was stored at −80° C. until analysis. Prior to lactulose administration, endoscopy was performed on each dog, and the presence and extent of gastric ulceration were assessed by a blinded specialist veterinary gastroenterologist. Following confirmation of the presence of ulceration, NSAID administration was discontinued and post ulcer induction lactulose administration and plasma collection were performed. Frozen plasma samples were transported under GMP conditions at −80° C. to an analytical facility. Following thawing, the samples were analysed for lactulose concentration using an ion chromatography method previously developed using blank plasma samples spiked with known concentrations of lactulose. [table] Sample preparation for Ion Chromatography analysis: 200 μL aliquots of liquid from each of the plasma samples were diluted to 1000 μL with acetonitrile. The samples were vortexed thoroughly, followed by centrifugation at 15000 rpm for 10 minutes. The supernatants were analysed directly by ion chromatography. Analysis was performed in duplicate. Calibration Curve: Calibration curves were prepared in the blank plasma sample. Briefly, plasma samples were spiked with varying concentrations of lactulose and were then diluted with acetonitrile to the required final concentration range. The samples were then processed as described above before analysis by ion chromatography. Samples were analysed in duplicate. Linearity was established for plasma lactulose concentrations in the range 5 to 250 μM.

A short description of series [2]: Electrochemical dual-enzyme (β-Gal/GalOx) biosensor quantification of lactulose in canine plasma sample by amperometry. The series is classed as in vivo. The settings on record: dog, oral, canine plasma sample CAN 84049 D6 t60, standard additions calibration, read-out: lactulose concentration in the original plasma sample. The source says: An electrochemical biosensor for the indirect detection of lactulose in buffer and plasma samples used an electrocatalytic surface as the working electrode which was modified with a dual enzyme system comprising β-galactosidase (β-Gal) and galactose oxidase (GalOx). The electrochemical biosensor comprised a 3-electrode system of a working electrode (the dual enzyme-modified Pt electrode), an Ag/AgCl reference electrode, and a Pt wire as auxiliary electrode.
The enzymes were immobilised on the surface of the working electrode using a cross-linker. A 2 mm diameter Pt disk was used as the electrocatalytic surface for the working electrode. […]
The three electrodes were immersed in 2 mL of PBS solution 0.1 M pH 7.3 at 35° C. to comprise the electrochemical cell and an oxidative potential of +600 mV was applied between the working and reference electrodes for quantification of lactulose in a canine plasma sample by amperometry, as illustrated in FIG. 5. […]
Following this 200 μL of canine plasma (CAN 84049 D6 t60) was added to the cell and the current response was monitored for a period of 400 s.
Three sequential additions of a volume of 1 mM Lactulose standard (V1=75 μL; V2=80 μL; V3=85 μL) were then added to the cell and the current response was monitored for 400 s after each addition. […]

Series [3] has as its target H-2 receptors (Homo sapiens, UniProt P25021). The settings on record: human subjects, administered intravenously; cited from earlier work.
Series [4] concerns gastric ulceration. As to the kind of experiment: Omeprazole treatment of study dogs with NSAID-induced gastric ulceration. The settings on record: 0.5 to 1.0 mg/kg twice daily for 3 weeks. The series is classed as in vivo, dog.
The subject of series [5] is gastric ulcers. The settings on record: foals; ulcers associated with intravenous high-dose NSAIDs; cited from earlier work.
Setting [6] is: ulceration Moderate to severe (n = 4).

Sequence of H-2 receptors (P25021 whole entry): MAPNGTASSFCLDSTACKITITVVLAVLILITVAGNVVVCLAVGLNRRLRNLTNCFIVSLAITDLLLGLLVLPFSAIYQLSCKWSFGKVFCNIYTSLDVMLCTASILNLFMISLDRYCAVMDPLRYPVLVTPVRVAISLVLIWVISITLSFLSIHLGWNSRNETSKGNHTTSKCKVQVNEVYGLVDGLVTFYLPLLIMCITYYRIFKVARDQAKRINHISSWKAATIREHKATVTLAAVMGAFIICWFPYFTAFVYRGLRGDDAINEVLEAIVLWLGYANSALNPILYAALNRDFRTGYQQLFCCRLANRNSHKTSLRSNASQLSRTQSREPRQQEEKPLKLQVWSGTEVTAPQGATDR

Turning to `OC[C@H]1O[C@@H](O[C@@H]2[C@@H](CO)OC(O)(CO)[C@H]2O)[C@H](O)[C@@H](O)[C@H]1O` (mixture of isomers) [Lactulose, lactulose], the concentration at 10 min in series [1] (10 min after 0.6-0.7 g/kg PO (50 ml 20% w/v), endoscopic grade of gastric ulceration Absent (n = 8)) amounted to 24.9 µM; in series [1] (10 min after 0.6-0.7 g/kg PO, ulceration Mild (n = 4)), 44.6 µM; in series [1] (10 min after 0.6-0.7 g/kg PO, ulceration Moderate to severe (n = 4)), 60.9 µM. Besides, the concentration at 20 min came to 39.1 µM in series [1] (ulceration Absent (n = 8)), 68.7 µM in series [1] (ulceration Mild (n = 4)) and 94.3 µM in series [1] (setting [6]). The values for the concentration at 30 min in series [1] (ulceration Absent (n = 8)), in series [1] (ulceration Mild (n = 4)) and in series [1] (setting [6]) were 46 µM, 88.2 µM and 144 µM, respectively. Also, the concentration at 60 min in series [1] (ulceration Absent (n = 8)) is 61.1 µM; in series [1] (ulceration Mild (n = 4)), 110 µM; in series [1] (setting [6]), 184 µM; in series [2] it was 275 to 400 µM. Besides, in series [1] (following ulcer induction versus baseline, each dog), the “rate and extent of systemic lactulose absorption” value is “increased significantly”.

On to `NC(N)=Nc1nc(CSCCC(N)=NS(N)(=O)=O)cs1` [famotidine], for which the “time to occurrence of tolerance” value in series [3] is 12 to 72 h.

On to `COc1ccc2[nH]c([S+]([O-])Cc3ncc(C)c(OC)c3C)nc2c1` (centres unmarked) [omeprazole], for which, in series [4], the “time to resolution of laboratory evidence of gastric ulceration (anemia, inflammatory leucogram, hypoalbuminaemia)” value was at most 3 weeks.

In the case of sucralfate, the “effect on gastric ulcers” value in series [5] is “protective effect”.

(Values after patent publication US20230108730A1, “BIENZYMATIC BIOSENSOR FOR THE DETECTION OF LACTULOSE IN BLOOD” (TRIVIUMVET DESIGNATED ACTIVITY COMPANY, priority 2020, published 2023).)
